Measurements reported in patent publication US11298367B2, “Prodrugs of substituted triazole derivatives and uses thereof” (Bayer Aktiengesellschaft, priority 2017, dated 2022).

How the values were obtained:
[1] = molecular target: T1, human V1a receptor (Homo sapiens, UniProt P37288); test: Cellular in vitro assay for vasopressin receptor activity (V1a, aequorin luminescence); format: cell-based; details: for IC50: CHO cell line with human V1a receptor, [Arg8]-vasopressin at EC50, values are for the prodrug as such, read-out: IC50 hV1a; for ratio IC50 hV2/hV1a: selectivity ratio hV2/hV1a
T1 construct: expressed in transfected cells; host or cells: CHO K1 (Chinese hamster ovary), also stably transfected with a modified aequorin
Experimental: (§1) B-1. Cellular In Vitro Assay for Determining Vasopressin Receptor Activity
(§2) The identification of agonists and antagonists of the V1a and V2 vasopressin receptors from humans, rats and dogs as well as the quantification of the activity of the compounds of the invention is carried out using recombinant cell lines. These cell lines originally derive from a hamster's ovary epithelial cell (Chinese Hamster Ovary, CHO K1, ATCC: American Type Culture Collection, Manassas, Va. 20108, USA). The test cell lines constitutively express the human, rat or dog V1a or V2 receptors. In case of the Gaq-coupled V1a receptors, cells are also stably transfected with a modified form of the calcium-sensitive photoproteins aequorin (human and rat V1a) or obelin (dog V1a), which, after reconstitution with the cofactor coelenterazine, emit light when there are increases in free calcium concentrations [Rizzuto R, Simpson A W, Brini M, Pozzan T, Nature 358, 325-327 (1992); Illarionov B A, Bondar V S, Illarionova V A, Vysotski E S, Gene 153 (2), 273-274 (1995)]. The resulting vasopressin receptor cells react to stimulation of the recombinantly expressed Via receptors by intracellular release of calcium ions, which can be quantified by the resulting photoprotein luminescence. The Gs-coupled V2 receptors are stably transfected into cell lines expressing the gene for firefly luciferase under control of a CRE-responsible promoter. Activation of V2 receptors induces the activation of the CRE-responsive promoter via cAMP increase, thereby inducing the expression of firefly luciferase. The light emitted by photoproteins of V1a cell lines as well as the light emitted by firefly luciferase of V2 cell lines corresponds to the activation or inhibition of the respective vasopressin receptor. The bioluminescence of the cell lines is detected using a suitable luminometer [Milligan G, Marshall F, Rees S, Trends in Pharmacological Sciences 17, 235-237 (1996)].
Vasopressin V1a Receptor Cell Lines:
On the day before the assay, the cells are plated out in culture medium (DMEM/F12, 2% FCS, 2 mM glutamine, 10 mM HEPES, 5 μg/ml coelenterazine) in 384-well microtiter plates and kept in a cell incubator (96% humidity, 5% v/v CO2, 37C). On the day of the assay, test compounds in various concentrations are placed for 10 minutes in the wells of the microtiter plate before the agonist [Arg^8]-vasopressin at EC50 concentration is added. The resulting light signal is measured immediately in a luminometer.
(§3) Table 1A below lists individual IC50 values for the compounds of the invention (including racemic mixtures as well as separated enantiomers) that were obtained from cell lines transfected with the human V1a or V2 receptor. This means these IC50 values are the values for the prodrug and not for the underlying respective drug as the prodrug is mainly stable under the assay conditions.

[2] = molecular target: T2, human V2 receptor (Homo sapiens, UniProt P30518); test: Cellular in vitro assay for vasopressin receptor activity (V2, CRE-luciferase); format: cell-based; details: CHO cell line with human V2 receptor, [Arg8]-vasopressin at EC50; values are for the prodrug as such; read-out: IC50 hV2
T2 construct: expressed in transfected cells; host or cells: CHO K1 cells expressing firefly luciferase under a CRE-responsive promoter
Experimental: as §1, §2
Vasopressin V2 Receptor Cell Lines:
On the day before the assay, the cells are plated out in culture medium (DMEM/F12, 2% FCS, 2 mM glutamine, 10 mM HEPES) in 384-well microtiter plates and kept in a cell incubator (96% humidity, 5% v/v CO2, 37C). On the day of the assay, test compounds in various concentrations and the agonist [Arg^8]-vasopressin at EC50 concentration are added together to the wells, and plates are incubated for 3 hours in a cell incubator. Upon addition of the cell lysis reagent Triton™ and the substrate luciferin, luminescence of firefly luciferase is measured in a luminometer.
as §3

[3] = Solubility; format: physicochemical; details: 24 h room temperature, max. 500 μg/ml; for solubility at 24 h: thermodynamic from solid
Experimental: For each substance 0.5-0.6 mg are weighed exactly. In each case, sufficient medium is added to the sample in such a way that a concentration of c=500 μg/ml is obtained. This sample solution is shaken for 24 h at room temperature and 1400 rpm.
A further sample weight of 0.5-0.6 mg is required for the DMSO calibration solution. This sample is filled with DMSO to a concentration of c=600 μg/ml. Two calibration solutions are prepared from this stock solution. In a 2 ml HPLC vial, 1000 μl of DMSO are initially introduced and 34.4 μl of the stock solution are pipetted (c=20 µg/ml). […] of this solution (c=20 μg/ml) are placed in a further 2 ml HPLC vial containing 500 μl of DMSO (c=2.5 μg/ml).
After shaking the test solutions, 230 μl of the supernatant are transferred into a centrifuge tube and centrifuged at 42 000 rpm (223 000 g) for 30 min. 180 μl of the supernatant are then taken and each diluted with DMSO (1:5 sample 1; 1:100 sample 2), and transferred to HPLC vials. The two calibration solutions and the dilute sample solutions are analyzed by HPLC. Quantification is performed over the corresponding peak areas.
Distilled water; trifluoroacetic acid (Merck; 1.08262.0100); acetonitrile (HPLC grade); DMSO (Merck; 8.02912.2500).
Fluka buffer, Order No. 33643 (11.76 g citric acid, 2.57 g sodium chloride and 2.72 g sodium hydroxide).
Fluka buffer, Order No. 33646 (3.52 g potassium dihydrogenphosphate, 7.26 g sodium hydrogen phosphate).
Solution of 6.18 g sodium chloride and 3.96 g sodium dihydrogen phosphate in 1 L distilled water, adjust with 1M aqueous sodium hydroxide solution to pH 7.4.
0.6057 g TRIS was dissolved in 95 ml water, adjust to pH 8.5 with aqueous hydrochloric acid, fill with water until 100 ml volume is reached.

[4] = PBS buffer pH 7.4, pH 7.4, aqueous buffer, pH = 7.4 PBS buffer
[5] = Tris buffer pH 8.5, pH 8.5, aqueous buffer, pH = 8.5 Tris buffer
[6] = citrate buffer pH 4, pH 4, aqueous buffer, pH = 4 citrate buffer

T2 sequence (P30518 whole entry): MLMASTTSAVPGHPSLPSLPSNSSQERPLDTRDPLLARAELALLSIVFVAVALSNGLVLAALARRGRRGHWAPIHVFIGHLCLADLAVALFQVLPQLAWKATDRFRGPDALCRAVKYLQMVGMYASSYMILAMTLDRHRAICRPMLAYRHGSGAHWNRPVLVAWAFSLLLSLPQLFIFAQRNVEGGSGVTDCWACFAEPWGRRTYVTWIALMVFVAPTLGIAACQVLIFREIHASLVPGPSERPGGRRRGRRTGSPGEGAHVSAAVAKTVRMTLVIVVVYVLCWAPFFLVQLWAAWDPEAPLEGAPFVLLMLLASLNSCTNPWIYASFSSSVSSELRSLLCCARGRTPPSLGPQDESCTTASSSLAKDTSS
T1 sequence (P37288 whole entry): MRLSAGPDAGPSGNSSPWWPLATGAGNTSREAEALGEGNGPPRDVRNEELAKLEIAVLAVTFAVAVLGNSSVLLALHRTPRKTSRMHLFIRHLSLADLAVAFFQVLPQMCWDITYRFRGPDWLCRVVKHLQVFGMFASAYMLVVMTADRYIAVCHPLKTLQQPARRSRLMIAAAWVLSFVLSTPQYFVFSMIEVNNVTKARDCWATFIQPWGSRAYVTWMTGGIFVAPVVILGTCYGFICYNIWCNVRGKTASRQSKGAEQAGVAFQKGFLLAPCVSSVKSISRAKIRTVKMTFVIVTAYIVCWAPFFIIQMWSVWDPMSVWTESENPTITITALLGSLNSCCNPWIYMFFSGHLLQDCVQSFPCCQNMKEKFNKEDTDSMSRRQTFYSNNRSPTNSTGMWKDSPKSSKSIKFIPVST

Structure (SMILES)	IC50 [1]	ratio IC50 hV2/hV1a ([1]; Phosphate)	IC50 [2]	solubility at 24 h [3, 4]	solubility at 24 h [3, 5]	solubility at 24 h [3, 6]	Solubility ([3]; pH = 4 citrate buffer)	Solubility ([3]; pH = 7.4 PBS buffer, Phosphate)	Solubility ([3]; pH = 8.5 Tris buffer, Phosphate)	ratio IC50 hV2/hV1a [1]
NC(=O)c1nc(Cn2nc(-c3ccc(Cl)cc3)n(C[C@H](OP(=O)([O-])O)C(F)(F)F)c2=O)nn1-c1ncccc1C(F)(F)F.[Na+] [Example 4, Sodium (2S)-3-[1-({5-carbamoyl-1-[3-(trifluoromethyl)pyridin-2-yl]-1H-1,2,4-triazol-3-yl}-methyl)-3-(4-chlorophenyl)-5-oxo-1,5-dihydro-4H-1,2,4-triazol-4-yl]-1,1,1-trifluoropropan-2-yl Hydrogen Phosphate]	11.1 nM	13.5	150 nM	> 500 µg/mL	> 500 µg/mL	> 500 µg/mL	–	–	–	–
NC(=O)c1nc(Cn2nc(-c3ccc(Cl)cc3)n(C[C@H](OP(=O)([O-])O)C(F)(F)F)c2=O)nn1-c1ncccc1C(F)(F)F.[Li+] [Example 6, Lithium (2S)-3-[1-({5-carbamoyl-1-[3-(trifluoromethyl)pyridin-2-yl]-1H-1,2,4-triazol-3-yl}-methyl)-3-(4-chlorophenyl)-5-oxo-1,5-dihydro-4H-1,2,4-triazol-4-yl]-1,1,1-trifluoropropan-2-yl Hydrogen Phosphate]	15.5 nM	14.2	220 nM	464 µg/mL	464 µg/mL	> 500 µg/mL	–	–	–	–
NC(=O)c1nc(Cn2nc(-c3ccc(Cl)cc3)n(C[C@H](OP(=O)([O-])O)C(F)(F)F)c2=O)nn1-c1ncccc1C(F)(F)F.[Li+] [Example 7, Lithium (2S)-3-[1-({5-carbamoyl-1-[3-(trifluoromethyl)pyridin-2-yl]-1H-1,2,4-triazol-3-yl}-methyl)-3-(4-chlorophenyl)-5-oxo-1,5-dihydro-4H-1,2,4-triazol-4-yl]-1,1,1-trifluoropropan-2-yl Hydrogen Phosphate]	8.85 nM	18.1	160 nM	–	–	–	>500 µg/mL	>500 µg/mL	>500 µg/mL	–
NC(=O)c1nc(Cn2nc(-c3ccc(Cl)cc3)n(C[C@H](OP(=O)([O-])[O-])C(F)(F)F)c2=O)nn1-c1ncccc1C(F)(F)F.[Mg+2] [Example 9, Magnesium (2S)-3-[1-({5-carbamoyl-1-[3-(trifluoromethyl)pyridin-2-yl]-1H-1,2,4-triazol-3-yl}-methyl)-3-(4-chlorophenyl)-5-oxo-1,5-dihydro-4H-1,2,4-triazol-4-yl]-1,1,1-trifluoropropan-2-yl Phosphate]	14 nM	–	225 nM	> 500 µg/mL	447 µg/mL	> 500 µg/mL	–	–	–	16.1
NC(=O)c1nc(Cn2nc(-c3ccc(Cl)cc3)n(C[C@H](OP(=O)([O-])O)C(F)(F)F)c2=O)nn1-c1ncccc1Cl.[Na+] [Example 20, Sodium (2S)-3-[1-{[5-carbamoyl-1-(3-chloropyridin-2-yl)-1H-1,2,4-triazol-3-yl]methyl}-3-(4-chlorophenyl)-5-oxo-1,5-dihydro-4H-1,2,4-triazol-4-yl]-1,1,1-trifluoropropan-2-yl Hydrogen Phosphate]	39.5 nM	2.2	85.5 nM	> 500 µg/mL	> 500 µg/mL	> 500 µg/mL	–	–	–	–
NC(=O)c1nc(Cn2nc(-c3ccc(Cl)cc3)n(C[C@H](OP(=O)([O-])[O-])C(F)(F)F)c2=O)nn1-c1ncccc1Cl.[Mg+2] [Example 22, Magnesium (2S)-3-[1-{[5-carbamoyl-1-(3-chloropyridin-2-yl)-1H-1,2,4-triazol-3-yl]methyl}-3-(4-chlorophenyl)-5-oxo-1,5-dihydro-4H-1,2,4-triazol-4-yl]-1,1,1-trifluoropropan-2-yl Phosphate]	45 nM	–	90 nM	> 500 µg/mL	> 500 µg/mL	> 500 µg/mL	–	–	–	2.0
